Like-named read-outs stand apart in the source and are kept apart here.
Experiments:
ROR1 kinase domain = target: T1, ROR1 kinase domain (Homo sapiens, UniProt Q01973); experiment: SPR assay on ROR1 kinase domain; type: binding
T1 construct: recombinant human ROR1 protein (aa 453‐783, His&GST Tag); His; GST; purchased Elabscience
T1 sequence (Q01973 453-783): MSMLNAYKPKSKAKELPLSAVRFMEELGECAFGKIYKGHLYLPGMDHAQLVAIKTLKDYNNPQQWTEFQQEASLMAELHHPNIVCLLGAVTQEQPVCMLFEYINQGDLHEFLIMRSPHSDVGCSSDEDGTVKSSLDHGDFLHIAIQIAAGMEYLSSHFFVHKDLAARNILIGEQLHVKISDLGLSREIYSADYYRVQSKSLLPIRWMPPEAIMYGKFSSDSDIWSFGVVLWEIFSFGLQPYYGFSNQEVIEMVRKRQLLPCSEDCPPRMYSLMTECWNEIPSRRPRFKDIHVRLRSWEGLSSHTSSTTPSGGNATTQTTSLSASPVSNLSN
Procedure: We performed molecular docking experiments to explore the binding mode of novel derivatives using the crystallographic structure of the protein co‐complexed with ponatinib, a known inhibitor of ROR1 (PDB code: 6TU9).^[ [30] ^] […] To evaluate the affinity of the synthesized molecules (10, 13, 14, 17–21, 26–29) for the protein counterpart, SPR assay was performed against kinase domain ROR1. Protein immobilization was achieved using the amide coupling method, and the molecules were tested at 10 different concentrations, ranging from 0 to 100 μM. Ponatinib was used as a positive control^[ [30] ^] (Table 1 ).
SPR spectroscopy analyses were conducted to evaluate the binding affinity of the synthesized compounds against ROR1 receptor using a Biacore T200 optical biosensor equipped with research‐grade CM5 sensor chips (Cytiva, Marlborough, USA). ROR1 kinase domain was immobilized on the CM5 sensor chip surface following standard amine‐coupling protocols. Specifically, kinasic domain was immobilized at pH 4.5 10 mM CH3COONa using a flow rate of 10 μL min^−1, achieving a density of around 20 kRU.
For the experiments, surfaces of ROR1, along with an unmodified reference surface, were prepared for simultaneous analyses. […] The compounds were injected in a series of concentrations (1:2 dilution, 10 different concentrations), spanning from 0 to 100 μM. The concentration series were prepared in 96‐well plates. SPR experiments were conducted at 25 °C, with a flow rate of 20 μL min^−1, allowing for 90 s of association monitoring and 400 s of dissociation monitoring. Changes in mass, reflective of the binding response, were recorded as resonance units (RU). K D values were determined using the Biaevaluation software performing a global fit of the double‐referenced association and dissociation data to a 1:1 interaction model^[ [43] ^] (see Figure S38, Supporting Information).

JeKo‐1 cells [1] = experiment: MTT cell viability assay, JeKo‐1; type: cell-based; conditions: Homo sapiens, cytotoxicity, treated for 72 h, read-out: EC50 ± SD JeKo‐1
Procedure: (§1) Cytotoxicity studies, assessing the activity of the synthetized compounds, were performed only on the molecules showing the best binding profile in the SPR assay. MTT test was performed on two cell lines known for overexpressing ROR1, particularly MTT assays were conducted on JeKo‐1 (human mantle cell lymphoma) and SH‐SY5Y (neuroblastoma), exposing them to different concentrations of compounds for 72 h (Table 2 ). […] This increased effectiveness is likely due to the high expression of the target protein in leukemia and other hematologic malignancies. […] A key structural difference in 18 and 19 compared to active compounds is the absence of the trifluoromethyl group on the aromatic ring. Indeed, the removal of the trifluoromethyl group (18) or the incorporation of an electron‐donating substituent (19) alters the interaction with the ATP‐binding pocket.
The JeKo‐1 mantle cell lymphoma (MCL) cell line, derived from mantle cell lymphoma of B‐cell lineage, was obtained from ATCC and was grown in RPMI supplemented with 10% v/v fetal bovine serum, 2 mM L‐glutamine, 100 U mL^−1 penicillin, and 0.1 mg mL^−1 streptomycin.
(§2) Cell viability was established by measuring mitochondrial metabolic activity with MTT. In brief, SH‐SY5Y (20 × 10^3 cells/well) and JeKo‐1 (10 × 10^3 cells/well) were plated into 96‐well plates for 24 h, then the compounds (1.56–50 μM) were added. […], cells were replaced with a fresh medium containing 0.5 mg mL^−1 MTT.^[ [45] ^] Cells were incubated for 1–3 h at 37 °C, then the medium was discarded, and formazan blue crystals in the cells dissolved with 100 μL per well of a solution containing isopropanol/HCl 0.1 M. The absorbance was measured at 570 nm using a microplate reader (Multiskan Go, Thermo Scientific, Waltham, MA, USA). Cell viability was expressed as a percentage relative to the untreated cells cultured in medium with 0.1% DMSO and set to 100%, whereas 10% DMSO was used as positive control and set to 0% of viability. The EC50 values were calculated using GraphPad Prism 8.0 software by nonlinear regression of dose‐response inhibition.

SH‐SY5Y cells = experiment: MTT cell viability assay, SH‐SY5Y; type: cell-based; conditions: Homo sapiens, cytotoxicity, treated for 72 h, read-out: EC50 ± SD SH‐SY5Y
Procedure: as §1
The neuroblastoma SH‐SY5Y cells, a human neuroblastoma cell line of neural crest origin, were obtained from ATCC and were grown in DMEM supplemented with 10% v/v fetal bovine serum, 2 mM L‐glutamine, 100 U mL^−1 penicillin, and 0.1 mg mL^−1 streptomycin.
as §2

JeKo‐1 cells [2] = experiment: Annexin V‐FITC/PI staining apoptosis, flow cytometry; type: cell-based, human; conditions: JeKo‐1, 20 μM, 72 h, early and late apoptosis
Excerpt: This observation aligns with previous studies reporting that ROR1 is highly expressed in B‐cell malignancies, including mantle cell lymphoma, where it plays a crucial role in survival signaling and resistance to apoptosis.^[ [10], [32] ^] Given the higher susceptibility of JeKo‐1 cells to the inhibitor, we selected this model for further apoptotic analysis. However, for completeness, apoptotic data for the SH‐SY5Y cell line are also provided in the Supporting Information (Figure S39, Supporting Information). Specifically, cells were incubated with compounds 17, 20, or 29 (20 μM) for 72 h and a flow cytometry analysis using Annexin V/PI staining was performed. After treatment, a very strong increase in the apoptotic response was observed, in both early and late apoptotic populations compared to the negative control (Figure 4 ). […] These findings are in accordance with the literature and further support the potential of ROR1 inhibition in promoting cell death in mantle cell lymphoma.^[ [33] ^]
Figure 4 Proapoptotic activity of compounds 17, 20, and 29 (20 μM) on JeKo‐1 cells treated for 72 h. A) Representative flow cytometry plots using Annexin V‐FITC/PI staining for apoptosis. B) Related quantitative analysis is reported. Data are expressed as a percentage of live, apoptotic, and necrotic cells. Results are shown as mean ± standard deviation (SD) from three independent experiments. *** denote p < 0.001 versus Ctrl.
Apoptosis of the cells was assessed using annexin V‐FITC/PI reagents. JeKo‐1 cells (60 × 10^3 cells/well) were seeded into 24‐well plates and incubated for 72 h with compounds (20 and 10 μM). After treatment, the collected cells were resuspended in a 100 μL assay buffer, then 5 Annexin V‐FITC and 1 PI reagents were added following incubation for 20 min at room temperature according to the manufacturer's protocol (Dead Cell Apoptosis Kits with Annexin V for Flow Cytometry, Thermo Fisher Scientific). Cells were analyzed with a Becton Dickinson FACScan flow cytometer using the Cell Quest software, version 4 (Franklin Lakes, NJ, USA).^[ [46] ^]

[3] = SPR, KD ± SD, 0 to 100 μM, 25 °C, n.b. = no binding
[4] = SPR, KD ± SD, 0 to 100 μM, 25 °C, n.b. = no binding, read-out: Kinase domain KD

Kinase domain KD (ROR1 kinase domain; [3])	Kd (ROR1 kinase domain; [4]) [µM]	Structure (SMILES)	EC50 (JeKo‐1 cells [1]) [µM]	EC50 (SH‐SY5Y cells) [µM]	further results
n.b.		N#CCCNc1ccc(NC(=O)NCc2ccc(-c3ccccc3)cc2)c(C(F)(F)F)c1 [Compound 10]			
n.b.		O=C(NCc1ccc(-c2ccccc2)cc1)Nc1ccc(NCc2ccncc2)cc1C(F)(F)F [Compound 13]			
n.b.		N#CCCNc1ccc(NC(=O)NCc2ccc(C(F)(F)F)cc2)cc1 [Compound 14]			
	18.4 ± 3.14	O=C(NCc1ccc(-c2ccccc2)cc1)Nc1ccc(NCC2CCNCC2)cc1 [Compound 18]	> 50	> 50	
	15 ± 2.47	COc1cc(NCC2CCNCC2)ccc1NC(=O)NCc1ccc(-c2ccccc2)cc1 [Compound 19]	> 50	> 50	
	16.7 ± 2.86	NCCCNc1ccc(NC(=O)NCc2ccc(-c3ccccc3)cc2)c(C(F)(F)F)c1 [Compound 20]	11.3 ± 3.15	14.2 ± 4.81	apoptotic cells (JeKo‐1 cells [2]): 94.50 ± 3.12%
n.b.		Nc1ccc(CNc2ccc(NC(=O)NCc3ccc(-c4ccccc4)cc3)c(C(F)(F)F)c2)cc1 [Compound 21]			
n.b.		Nc1ccc(CNc2ccc(NS(=O)(=O)c3ccc(-c4ccccc4)cc3)c(C(F)(F)F)c2)cc1 [Compound 26]			
n.b.		O=S(=O)(Nc1ccc(NCC2CCNCC2)cc1C(F)(F)F)c1ccc(-c2ccccc2)cc1 [Compound 27]			
n.b.		O=C(Nc1ccc(NCC2CCNCC2)cc1C(F)(F)F)c1ccc(-c2ccccc2)cc1 [Compound 28]			
	13.4 ± 1.92	O=C(NCc1ccc(-c2ccccc2)cc1)Nc1ccc(NC2CCNCC2)cc1C(F)(F)F [Compound 29]	13.9 ± 2.75	18.5 ± 2.65	apoptotic cells (JeKo‐1 cells [2]): 73.15 ± 2.76%
		Cc1ccc(C(=O)Nc2ccc(CN3CCN(C)CC3)c(C(F)(F)F)c2)cc1C#Cc1cnc2cccnn12 [Ponatinib, 3‐(2‐imidazo[1,2‐b]pyridazin‐3‐ylethynyl)‐4‐methyl‐N‐[4‐[(4‐methylpiperazin‐1‐yl)methyl]‐3‐(trifluoromethyl)phenyl]benzamide, reference compound]	1.69 ± 1.03	4.25 ± 3.92	Kd (ROR1 kinase domain): 2.9 ± 0.85 µM
